The subject of the experiment is OPRD1 counterscreen cells, luminescence, activation. The experiment can be described thus: OPRD1 cell luminescence activation counter-screen – dose response, counter-screen for OPRM1-OPRD1 heterodimer activator project, late-stage follow-up (AID 651686). A general note: A counterscreen serves to expose hits that act by an unwanted route or on another target.

From PubChem BioAssay AID651686 (The Scripps Research Institute Molecular Screening Center, 2012) come the findings set out here.

As usually defined, the EC50 is the concentration needed to bring the measured effect to its halfway point.

Molecules are shown by their SMILES. Activity calls are given as the source filed them. How the calls were made is not given here. A value given as a limit tells only on which side of the number the result lay.

`CCOC(=O)C1(Cc2ccccc2)CCN(Cc2cccn2-c2nccs2)CC1`: the EC50 was > 40 µM (inactive).
In the case of `CCOC(=O)C1(CCCc2ccccc2)CCN(Cc2cnn(C)c2)CC1` it was > 40 µM (inactive); in that of `CCOC(=O)C1(CCc2ccccc2)CCN(Cc2ccc(OC(C)C)c(C#N)c2)CC1`, > 40 µM (inactive).
In the case of `CCOC(=O)C1(CCOc2ccccc2)CCN(Cc2ccc(O)c(OC)c2)CC1` it was > 40 µM (inactive); in that of `CCOC(=O)C1(CC2CCCCO2)CCN(Cc2c(C)cc(C)cc2-n2cccn2)CC1` (stereo unspecified), > 40 µM (inactive); in that of `CCOC(=O)C1(CCOc2ccccc2)CCN(Cc2cccn2-c2cccnc2)CC1`, > 40 µM (inactive).
Next, `CCOC(=O)C1(CCc2ccccc2)CCN(Cc2cc(C)cc(C)c2)CC1`: > 40 µM (inactive); `CCOC(=O)C1(CCc2ccccc2)CCN(Cc2ccc(NC(C)=O)cc2)CC1`: 1.1 µM; `CCOC(=O)C1(Cc2ccccc2)CCN(Cc2cccn2-c2cccnc2)CC1`: > 40 µM (inactive).
With `OCC1(CCc2ccccc2)CCN(Cc2cc(F)ccc2-n2cccn2)CC1`, the EC50 was > 40 µM (inactive).
Next, `CCOC(=O)C1(CCc2ccccc2)CCN(Cc2ccccc2C)CC1`: > 40 µM (inactive).
